Measurements from patent US20260035382A1, “COMPOUNDS AS SUMO ACTIVATING ENZYME INHIBITORS” (WIGEN BIOMEDICINE TECHNOLOGY (SHANGHAI) CO., LTD., priority 2022, published 2026).
Read-outs that look alike come from different tables or passages of the source.

Columns and labels:
[1] = In vivo pharmacokinetic experiment, intravenous administration; settings: CD-1 female mice, 2 mpk; for Plasma AUClast: plasma (Table 5); for C0 / clearance / half-life / AUC(0-t) / Cmax / Vd: mouse, 2 mg/kg; for Vd: read-out: Vdss
Method: CD-1 female mice aged 6 to 8 weeks were intravenously administered at a dose of 2 mg/kg. The mice were fasted for at least 12 h before the administration and given food after the administration, and they were given ad libitum access to water during the experiment. On the day of the experiment, animals in the intravenous group were administered the corresponding compound by single injection via the tail vein at an administration volume of 0.2 mL/animal. The sample collection time was 0.083 h, 0.167 h, 0.5 h, 1 h, 2 h, 4 h, 8 h, and 24 h. About 150 μL of whole blood was collected through the submaxillary venous plexus at each time point (30 μL of whole blood was diluted with ultrapure water at a ratio of 1:3, and 120 μL of whole blood was centrifuged to obtain plasma) and used for concentration determination by high-performance liquid chromatography-tandem mass spectrometry (LC-MS/MS). All animals were sacrificed after the PK samples were collected at the last time point. The plasma concentration was processed using a non-compartmental model of Phoenix WinNonlin™ version 8.3 (Certara) pharmacokinetic software, and the pharmacokinetic parameters were calculated using a linear-log trapezoidal method.

SAE = SAE (Homo sapiens (Human), UniProt Q9UBT2); test: In vitro inhibitory activity assay against SAE (SUMO-2/3 immunofluorescence in HCT116 cells); type: cell-based; settings: 6 h incubation, read-out: SUMO IF IC50
Procedure, shortened: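 HCT116 cells treated with compounds for 6 h at 37 °C, then fixed, permeabilized and immunostained for SUMO-2/3 with FITC secondary detection. Fluorescence compared with DMSO control to give inhibition rate and IC50.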

[2] = whole blood, read-out: Whole blood AUClast
[3] = whole blood, read-out: Whole blood Cmax

SAE, sequence (Q9UBT2 whole entry): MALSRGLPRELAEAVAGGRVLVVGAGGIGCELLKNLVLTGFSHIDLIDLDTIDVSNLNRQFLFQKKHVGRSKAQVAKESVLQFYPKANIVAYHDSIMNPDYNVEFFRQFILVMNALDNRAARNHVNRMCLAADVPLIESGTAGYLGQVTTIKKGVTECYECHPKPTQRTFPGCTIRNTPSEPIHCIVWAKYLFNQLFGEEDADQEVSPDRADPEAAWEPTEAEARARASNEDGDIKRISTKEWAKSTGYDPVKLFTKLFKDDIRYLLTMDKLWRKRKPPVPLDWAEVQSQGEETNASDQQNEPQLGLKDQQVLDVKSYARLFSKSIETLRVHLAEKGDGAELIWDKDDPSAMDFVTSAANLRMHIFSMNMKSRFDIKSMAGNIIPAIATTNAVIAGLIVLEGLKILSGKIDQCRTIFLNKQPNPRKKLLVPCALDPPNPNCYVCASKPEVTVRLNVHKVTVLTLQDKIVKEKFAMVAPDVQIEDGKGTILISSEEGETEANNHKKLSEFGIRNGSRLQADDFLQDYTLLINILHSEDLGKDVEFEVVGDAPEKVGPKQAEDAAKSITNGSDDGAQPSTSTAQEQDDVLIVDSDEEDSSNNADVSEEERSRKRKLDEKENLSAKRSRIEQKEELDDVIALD
SAE, sequence (Q9UBE0 whole entry partner): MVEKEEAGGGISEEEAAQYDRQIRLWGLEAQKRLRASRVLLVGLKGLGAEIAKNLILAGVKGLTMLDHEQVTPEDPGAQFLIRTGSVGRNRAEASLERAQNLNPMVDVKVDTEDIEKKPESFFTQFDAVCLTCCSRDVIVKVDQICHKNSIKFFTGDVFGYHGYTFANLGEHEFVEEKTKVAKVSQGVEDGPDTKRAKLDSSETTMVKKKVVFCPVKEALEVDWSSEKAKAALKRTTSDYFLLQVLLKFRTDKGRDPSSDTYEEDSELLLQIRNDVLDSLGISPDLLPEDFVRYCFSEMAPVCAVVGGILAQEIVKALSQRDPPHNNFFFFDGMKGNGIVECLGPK

| C0 ([1]; plasma) | clearance ([1]; plasma) | half-life ([1]; plasma) | AUC(0-t) ([1]; plasma, read-out: AUClast) | Cmax ([1]; plasma, read-out: Cmax) | Vd ([1]; plasma) | SMILES | IC50 (SAE; numeric values) | IC50 (SAE; class symbols) | other results |
| --- | --- | --- | --- | --- | --- | --- | --- | --- | --- |
| 730 ng/mL | 56.9 mL/min/kg | 1.31 h | 580 ng·h/mL | 597 ng/mL | 3.91 L/kg | NS(=O)(=O)OC[C@H]1C[C@@H](Nc2ncncc2C(=O)c2cc3c(s2)CCC[C@]32NCCc3ccc(F)cc32)C[C@@H]1O [Compound 9] | 36 nM | – | Whole blood AUClast/plasma AUClast ratio [1]: 32.7; Whole blood Cmax/plasma Cmax ratio [1]: 23.9; Plasma AUClast [1]: 580 ng·h/mL; AUC(0-t) [1, 2]: 19000 ng·h/mL; Cmax [1, 3]: 14300 ng/mL |
| 1080 ng/mL | 36.9 mL/min/kg | 1.45 h | 881 ng·h/mL | 798 ng/mL | 3.5 L/kg | NS(=O)(=O)OC[C@H]1C[C@@H](Nc2ncncc2C(=O)c2cc3c(s2)CCC[C@]32NCCc3ccc(Cl)cc32)C[C@@H]1O [Compound 6] | 27.8 nM | – | Whole blood AUClast/plasma AUClast ratio [1]: 39.0; Whole blood Cmax/plasma Cmax ratio [1]: 19.7; Plasma AUClast [1]: 881 ng·h/mL; AUC(0-t) [1, 2]: 34400 ng·h/mL; Cmax [1, 3]: 15800 ng/mL |
| 839 ng/mL | 44 mL/min/kg | 1.32 h | 749 ng·h/mL | 719 ng/mL | 3.43 L/kg | NS(=O)(=O)OC[C@H]1C[C@@H](Nc2ncncc2C(=O)c2cc3c(s2)CC[C@]32NCCc3ccc(Cl)cc32)C[C@@H]1O [Compound 48] | 41 nM | – | – |
| 1610 ng/mL | 21.1 mL/min/kg | 2.17 h | 1480 ng·h/mL | 1150 ng/mL | 3.03 L/kg | NS(=O)(=O)OC[C@H]1C[C@@H](Nc2ncncc2C(=O)c2cc3c(s2)COC[C@]32NCCc3ccc(Cl)cc32)C[C@@H]1O [Compound 21] | 87.5 nM | – | Whole blood AUClast/plasma AUClast ratio [1]: 45.9; Whole blood Cmax/plasma Cmax ratio [1]: 17.5; Plasma AUClast [1]: 1479 ng·h/mL; AUC(0-t) [1, 2]: 67900 ng·h/mL; Cmax [1, 3]: 20200 ng/mL |
| – | – | – | – | – | – | NS(=O)(=O)OC[C@H]1C[C@@H](Nc2ncncc2C(=O)c2cc3c(s2)CCC32NC3(CC3)Cc3ccc(Cl)cc32)C[C@@H]1O (stereo partly drawn) [Compound 82] | – | 50 to 200 nM | – |
| – | – | – | – | – | – | CC(C)N1Cc2sc(C(=O)c3cncnc3N[C@@H]3C[C@H](COS(N)(=O)=O)[C@@H](O)C3)cc2[C@@]2(C1)OCCc1ccc(F)cc12 [Compound 269] | – | > 200 nM | – |
| – | – | – | – | – | – | CN1Cc2sc(C(=O)c3cncnc3N[C@@H]3C[C@H](COS(N)(=O)=O)[C@@H](O)C3)cc2C2(C1)OCCc1ccc(Cl)cc12 (stereo partly drawn) [Compound 259] | – | ≤ 50 nM | – |
| – | – | – | – | – | – | NS(=O)(=O)OC[C@H]1C[C@@H](Nc2ncncc2C(=O)c2cc3c(s2)C(F)(F)CC32NCCc3ccc(Cl)cc32)C[C@@H]1O (stereo partly drawn) [Compound 160] | – | 50 to 200 nM | – |
| – | – | – | – | – | – | COc1cc2c(cc1Cl)C1(CCc3sc(C(=O)c4cncnc4N[C@@H]4C[C@H](COS(N)(=O)=O)[C@@H](O)C4)cc31)NCC2 (stereo partly drawn) [Compound 73] | – | 50 to 200 nM | – |
| – | – | – | – | – | – | NS(=O)(=O)OC[C@H]1C[C@@H](Nc2ncncc2C(=O)c2cc3c(s2)CC[C@@]32OCCc3ccccc32)C[C@@H]1O [Compound 281] | – | > 200 nM | – |
| – | – | – | – | – | – | NS(=O)(=O)OC[C@H]1C[C@@H](Nc2ncncc2C(=O)c2cc3c(s2)CCC[C@@]32OCCc3ccccc32)C[C@@H]1O [Compound 245] | – | > 200 nM | – |
| – | – | – | – | – | – | NS(=O)(=O)OC[C@H]1C[C@@H](Nc2ncncc2C(=O)c2cc3c(s2)CCC[C@]32NCCc3ccc(Cl)nc32)C[C@@H]1O [Compound 138] | – | ≤ 50 nM | – |
